From patent publication US20130184251A1, “HETEROAROMATIC AND AROMATIC PIPERAZINYL AZETIDINYL AMIDES AS MONOACYLGLYCEROL LIPASE INHIBITORS” (Janssen Pharmaceutica, NV, priority 2009, published 2013)
Like-named read-outs stand apart in the source and are kept apart here.

System: HeLa cells
Test: 2-AG accumulation assay using HeLa cells
Type: cell-based
Conditions: for Emax at 10 µM: Homo sapiens; for Ex. 5 % MAFP @ 1 μM: 1 μM compound; for Ex. 5 % MAFP @ 1 μM / Ex. 5 % MAFP @10 μM: 2-AG relative to MAFP, HeLa homogenate; for Ex. 5 % MAFP @10 μM: 10 μM compound
[1] = HeLa cell homogenate, 2-AG accumulation relative to MAFP, compound @10 μM (second of two columns with the same head), read-out: Ex. 5 % MAFP @10 μM (second column)
[2] = HeLa cell homogenate, 2-AG accumulation relative to MAFP, compound @10 μM as printed (first of two columns with the same head), read-out: Ex. 5 % MAFP @10 μM (first column)

| SMILES | Emax at 10 µM [1] | also measured |
| --- | --- | --- |
| CC1(C)CCC(C)(C)c2cc(CCC(=O)N3CC(N4CCN(c5ccccn5)CC4)C3)ccc21 [compound 29, 1-Pyridin-2-yl-4-{1-[3-(5,5,8,8-tetramethyl-5,6,7,8-tetrahydronaphth-2-yl)propanoyl]azetidin-3-yl}piperazine] | 76.5% | – |
| O=C(c1ccc(-c2ccc(Cl)c(Cl)c2)cc1)N1CC(N2CCN(c3ncccn3)CC2)C1 [compound 11, 2-(4-{1-[(3′,4′-Dichlorobiphenyl-4-yl)carbonyl]azetidin-3-yl}piperazin-1-yl)pyrimidine] | 55.2% | – |
| O=C(c1ccc2nc(C3CCCCC3)oc2c1)N1CC(N2CCN(c3ccccn3)CC2)C1 [Compound #211] | – | Ex. 5 % MAFP @ 1 μM: 39.7 % MAFP; Ex. 5 % MAFP @10 μM: 100.8 % MAFP |
| Cc1c(C(=O)N2CC(N3CCN(c4ccccn4)CC3)C2)nn(-c2ccc(Cl)cc2Cl)c1-c1ccc(Cl)cc1 [compound 39, 1-(1-{[5-(4-Chlorophenyl)-1-(2,4-dichlorophenyl)-4-methyl-1H-pyrazol-3-yl]carbonyl}azetidin-3-yl)-4-pyridin-2-ylpiperazine] | – | Emax at 10 µM (HeLa, read-out: Ex. 5 % MAFP @10 μM): 87.6% |
| O=C(c1ccc(-c2ccccc2Cl)cc1)N1CC(N2CCN(c3ncccn3)CC2)C1 [compound 8, 2-(4-{1-[(2′-Chlorobiphenyl-4-yl)carbonyl]azetidin-3-yl}piperazin-1-yl)pyrimidine] | 58.3% | – |
| O=C(c1ccc(N2CCCC2)cc1)N1CC(N2CCN(c3ncccn3)CC2)C1 [Compound #2, 2-(4-{1-[(4-Pyrrolidin-1-ylphenyl)carbonyl]azetidin-3-yl}piperazin-1-yl)pyrimidine] | 105% | – |
| COc1ccc(-c2ccc(C(=O)N3CC(N4CCN(c5ncccn5)CC4)C3)cc2)cc1 [compound 5, 2-(4-{1-[(4′-Methoxybiphenyl-4-yl)carbonyl]azetidin-3-yl}piperazin-1-yl)pyrimidine] | 98.8% | – |
| O=C(c1ccc(-n2cccc2)cc1)N1CC(N2CCN(c3ncccn3)CC2)C1 [compound 25, 2-[4-(1-{[4-(1H-Pyrrol-1-yl)phenyl]carbonyl}azetidin-3-yl)piperazin-1-yl]pyrimidine] | 87.7% | – |
| O=C1c2ccccc2-c2ccc(C(=O)N3CC(N4CCN(c5ccccn5)CC4)C3)cc21 [compound 59, 2-{[3-(4-Pyridin-2-ylpiperazin-1-yl)azetidin-1-yl]carbonyl}-9H-fluoren-9-one] | 39.7% | Emax at 10 µM [2]: 10.2% |
| CCN(CC)c1ccc(C(=O)N2CC(N3CCN(c4ccccn4)CC3)C2)cc1 [compound 37, N,N-Diethyl-4-{[3-(4-pyridin-2-ylpiperazin-1-yl)azetidin-1-yl]carbonyl}aniline] | 65.9% | Emax at 10 µM [2]: 32% |
| O=C(c1ccc(-c2cccc(C(F)(F)F)c2)cc1)N1CC(N2CCN(c3ncccn3)CC2)C1 [compound 4, 2-[4-(1-{[3′-(Trifluoromethyl)biphenyl-4-yl]carbonyl}azetidin-3-yl)piperazin-1-yl]pyrimidine] | 112% | – |
| O=C(c1cccc(-c2ccc(F)cc2)c1)N1CC(N2CCN(c3ccccn3)CC2)C1 [compound 52, 1-{1-[(4′-Fluorobiphenyl-3-yl)carbonyl]azetidin-3-yl}-4-pyridin-2-ylpiperazine] | 52.2% | Emax at 10 µM [2]: 28% |
| CC(C)(C)OC(=O)N1CCC(c2ccc(C(=O)N3CC(N4CCN(c5ccccn5)CC4)C3)cc2)CC1 [compound 122, tert-Butyl 4-(4-{[3-(4-pyridin-2-ylpiperazin-1-yl)azetidin-1-yl]carbonyl}phenyl)piperidine-1-carboxylate] | 67.8% | – |
| O=C(c1ccc(C2CCCCC2)cc1)N1CC(N2CCN(c3ccccn3)CC2)C1 [compound 15, 1-{1-[(4-Cyclohexylphenyl)carbonyl]azetidin-3-yl}-4-pyridin-2-ylpiperazine] | 47.6% | – |
| O=C(c1ccccc1)c1cccc(C(=O)N2CC(N3CCN(c4ccccn4)CC3)C2)c1 [compound 86, Phenyl(3-{[3-(4-pyridin-2-ylpiperazin-1-yl)azetidin-1-yl]carbonyl}phenyl)methanone] | 10.4% | – |
| CCCCc1ccc(C(=O)N2CC(N3CCN(c4ccccn4)CC3)C2)cc1 [compound 35, 1-{1-[(4-Butylphenyl)carbonyl]azetidin-3-yl}-4-pyridin-2-ylpiperazine] | 66.7% | – |
| COc1ccc(-c2nc3cccc(C(=O)N4CC(N5CCN(c6ccccn6)CC5)C4)c3o2)cc1 [Compound #210] | – | Ex. 5 % MAFP @10 μM: 79.5 % MAFP |
| O=C(c1ccc(Cc2ccccc2)cc1)N1CC(N2CCN(c3ccccn3)CC2)C1 [compound 30, 1-{1-[(4-Benzylphenyl)carbonyl]azetidin-3-yl}-4-pyridin-2-ylpiperazine] | 37.3% | Emax at 10 µM [2]: 34.7% |
| O=C(c1ccc(N2CCCCCC2)cc1)N1CC(N2CCN(c3ccccn3)CC2)C1 [compound 3, 1-(4-{[3-(4-Pyridin-2-ylpiperazin-1-yl)azetidin-1-yl]carbonyl}phenyl)azepane] | 67.3% | – |
| CC(C)(C)c1nc2ccc(C(=O)N3CC(N4CCN(c5ccccn5)CC4)C3)cc2o1 [Compound #209] | – | Ex. 5 % MAFP @ 1 μM: 19.9 % MAFP; Ex. 5 % MAFP @10 μM: 47.3 % MAFP |

| SMILES | Emax at 10 µM [1] | also measured |
| --- | --- | --- |
| O=C(Cc1ccc(-c2ccccc2)cc1)N1CC(N2CCN(c3ccccn3)CC2)C1 [compound 88, 1-[1-(Biphenyl-4-ylacetyl)azetidin-3-yl]-4-pyridin-2-ylpiperazine] | 2.8% | – |
| O=C(/C=C/c1ccc(SC(F)(F)F)cc1)N1CC(N2CCN(c3ccccn3)CC2)C1 [compound 41, 1-Pyridin-2-yl-4-{1-[(2E)-3-(4-[(trifluoromethyl)sulfanyl]phenyl}prop-2-enoyl]azetidin-3-yl}piperazine] | 66.8% | – |
| O=C(c1ccc(Cc2ccccc2)cc1)N1CC(N2CCN(c3ncccn3)CC2)C1 [compound 24, 2-(4-{1-[(4-Benzylphenyl)carbonyl]azetidin-3-yl}piperazin-1-yl)pyrimidine] | 81.9% | – |
| CC(C)Cc1cc2cc(C(=O)N3CC(N4CCN(c5ccccn5)CC4)C3)ccc2n1CC(C)C [Compound #212] | – | Ex. 5 % MAFP @10 μM: 72.9 % MAFP |
| O=C(c1ccc(C2CCCCC2)cc1)N1CC(N2CCN(c3nccs3)CC2)C1 [compound 6, 1-{1-[(4-Cyclohexylphenyl)carbonyl]azetidin-3-yl}-4-(1,3-thiazol-2-yl)piperazine] | 41.5% | Emax at 10 µM [2]: 24.3% |
| O=C(c1ccc(-c2ccccc2)cc1)N1CC(N2CCN(c3nccs3)CC2)C1 [compound 36, 1-[1-(Biphenyl-4-ylcarbonyl)azetidin-3-yl]-4-(1,3-thiazol-2-yl)piperazine] | 91.3% | – |
| Cc1nc2cc(C(=O)N3CC(N4CCN(c5ncccn5)CC4)C3)ccc2n1C1CCCCC1 [compound 17, 1-Cyclohexyl-2-methyl-5-{[3-(4-pyrimidin-2-ylpiperazin-1-yl)azetidin-1-yl]carbonyl}-1H-benzimidazole] | 83.9% | – |
| CN(CC1CCCCC1)c1ccc(CCC(=O)N2CC(N3CCN(c4ccccn4)CC3)C2)cc1 [compound 40, N-(Cyclohexylmethyl)-N-methyl-4-{3-oxo-3-[3-(4-pyridin-2-ylpiperazin-1-yl)azetidin-1-yl]propyl}aniline] | 90.4% | Emax at 10 µM [2]: 77.3% |
| CC(C)Cn1c(-c2ccccc2)cc2cc(C(=O)N3CC(N4CCN(c5ccccn5)CC4)C3)ccc21 [Compound #214] | – | Ex. 5 % MAFP @10 μM: 93.5 % MAFP |
| Cc1nc2cc(C(=O)N3CC(N4CCN(c5ncccn5)CC4)C3)ccc2n1-c1ccccc1 [compound 14, 2-Methyl-1-phenyl-5-{[3-(4-pyrimidin-2-ylpiperazin-1-yl)azetidin-1-yl]carbonyl}-1H-benzimidazole] | 106% | – |
| O=C(c1cccc2c1Cc1ccccc1-2)N1CC(N2CCN(c3ccccn3)CC2)C1 [compound 96, 1-[1-(9H-Fluoren-1-ylcarbonyl)azetidin-3-yl]-4-pyridin-2-ylpiperazine] | 0% | – |
| O=C(c1ccc(C2CCCCC2)cc1)N1CC(N2CCN(c3noc4ccccc34)CC2)C1 [compound 33, 3-(4-{1-[(4-Cyclohexylphenyl)carbonyl]azetidin-3-yl}piperazin-1-yl)-1,2-benzisoxazole] | 33% | Emax at 10 µM [2]: 17.5% |
| CN(c1ccc(C(=O)N2CC(N3CCN(c4ccccn4)CC3)C2)cc1)C1CCCCC1 [Compound #1, N-Cyclohexyl-N-methyl-4-{[3-(4-pyridin-2-ylpiperazin-1-yl)azetidin-1-yl]carbonyl}aniline] | 70.5% | – |
| N#Cc1cccnc1N1CCN(C2CN(C(=O)c3ccc(C4CCCCC4)cc3)C2)CC1 [Compound #21, 2-(4-{1-[(4-Cyclohexylphenyl)carbonyl]azetidin-3-yl}piperazin-1-yl)pyridine-3-carbonitrile] | 79.5% | – |
| O=C(c1ccc(OCc2ccccc2)cc1)N1CC(N2CCN(c3ncccn3)CC2)C1 [compound 111, 2-[4-(1-{[4-(Benzyloxy)phenyl]carbonyl}azetidin-3-yl)piperazin-1-yl]pyrimidine] | 106% | – |
| COc1cccc(-c2nc3cc(C(=O)N4CC(N5CCN(c6ccccn6)CC5)C4)ccc3o2)c1 [Compound #216] | – | Ex. 5 % MAFP @10 μM: 86.9 % MAFP |
| O=C(c1ccc(-c2ccccc2)c(F)c1)N1CC(N2CCN(c3ncccn3)CC2)C1 [compound 26, 2-(4-{1-[(2-Fluorobiphenyl-4-yl)carbonyl]azetidin-3-yl}piperazin-1-yl)pyrimidine] | 125% | – |
| O=C(Nc1ccc(C(=O)N2CC(N3CCN(c4ccccn4)CC3)C2)cc1)C1CCCCC1 [compound 27, N-(4-{[3-(4-Pyridin-2-ylpiperazin-1-yl)azetidin-1-yl]carbonyl}phenyl)cyclohexanecarboxamide] | 110% | Emax at 10 µM [2]: 66.2% |
| CCCn1ccc2cc(C(=O)N3CC(N4CCN(c5ccccn5)CC4)C3)ccc21 [compound 31, 1-Propyl-5-{[3-(4-pyridin-2-ylpiperazin-1-yl)azetidin-1-yl]carbonyl}-1H-indole] | 69.5% | – |
